In US20200030304A1 (priority 2017, published 2020):

System: DFP-induced status epilepticus
Details: rat, in vivo

SMILES | effect on behavioral seizure scores induced by DFP | mortality | termination of status epilepticus / EEG epileptiform activity
Cc1ncc2n1-c1ccc(Cl)cc1C(c1ccccc1F)=NC2 [Midazolam, midazolam] | in-effective in reducing the behavioral seizure scores | no mortality | 
CCCC(CCC)C(=O)[O-].[Na+] [sodium valproate] |  |  | intermittent spikes and seizure activity during the whole 5 h of EEG recording
